The assay concerns the target T1, CXCR4 (Homo sapiens, UniProt P61073).
T1 construct: full-length receptor overexpressed in U87.CD4.CXCR4 glioma cells
Nature of the assay: […]SDF-1 (CXCL12) displacement on U87.CD4.CXCR4 cells. The format is cell-based.

T1 sequence (P61073 whole entry): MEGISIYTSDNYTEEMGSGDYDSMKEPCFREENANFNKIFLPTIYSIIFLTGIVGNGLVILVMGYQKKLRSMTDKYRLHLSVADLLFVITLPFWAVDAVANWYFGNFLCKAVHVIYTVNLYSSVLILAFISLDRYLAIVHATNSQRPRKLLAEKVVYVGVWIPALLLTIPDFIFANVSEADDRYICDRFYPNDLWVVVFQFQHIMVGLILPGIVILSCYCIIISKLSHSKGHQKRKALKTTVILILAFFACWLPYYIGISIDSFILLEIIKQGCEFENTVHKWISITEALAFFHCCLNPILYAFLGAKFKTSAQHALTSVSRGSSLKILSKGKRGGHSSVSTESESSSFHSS

By IC50 is commonly meant the concentration needed to halve the response being measured. For `c1ccc(CNCc2ccc(CN3CCCNCCNCCCNCC3)cc2)nc1` [AMD3465], the IC50 came out at 89.8 ± 3.5 nM.
As to `Fc1ccc(CNCCNCc2ccc(CN3CCCNCCNCCCNCC3)cc2)cc1` [compound 5, N^1-(4-((1,4,8,11-Tetraazacyclotetradecan-1-yl)methyl)benzyl)-N^2-(4-fluorobenzyl)ethane-1,2-diamine], the IC50 stood at 111 ± 4 nM. The IC50 values of the last two compounds are within 1.5-fold of each other.
